Here are results for six molecules from patent US8828928B2, “Amphiphilic peptides and peptide particles” (President and Fellows of Harvard College, priority 2011, dated 2014).

Series [1] in a line: Solubility of the peptides in water and organic solvents. It counts as physicochemical.
A short description of series [2]: Stability of nucleic acid-containing peptide particles in water and at physiological salt strength. It counts as physicochemical. The text has this:
It should be noted that a mixture of CD3 peptides and nucleic acid molecules can self-assemble to form stable particles in pure water; however, they are generally not stable and dissolve, responding to increasing salt strengths and higher temperatures.
Accordingly, in some embodiments, a mixture of fully-acetylated amphiphilic peptides (e.g., CD3ac peptides), partially-acetylated or non-acetylated amphiphilic peptides (e.g., CD3 peptides) and nucleic acid molecules can be prepared to form stable peptide particles containing nucleic acid molecules (e.g., DNA or RNA including siRNA). […] It was determined that the presence of CD3ac peptides stabilizes ssDNA-containing peptide particles at physiological conditions. All the three components co-precipitated to form ssDNA-containing peptide particles that were stable at the corresponding salt strength.

Series [3] is described as follows: Particle diameter and corona thickness by negative staining TEM. The class given is physicochemical. As for the experimental part: PNPs were assembled by mixing stock solutions of CD3ac, Tfn-AF568 and Flutax-2 to yield final concentrations of 123 μM CD3ac, 6 μM Flutax-2 and 10 μg/mL Tfn-AF568 in H2O:EtOH (1:1, v/v). Emulsification was induced by a first dilution step (1:1, H2O) followed by an equilibration period of 15 minutes before the ethanol content was further reduced to […] by the second dilution step (1:1, H2O). 50 μL aliquots of the resulting suspension were applied to 24-well sitting drop crystallization plates (Hampton Research, Cryschem) and counter-evaporated 3 times against 1 mL H2O during six hours.
PNP samples were prepared as described above. 5 μL of PNPs suspended in H2O were applied to a carbon film coated copper grid (400 square mesh, Electron Microscopy Sciences) and dried. The sample was stained with 10 μL 1% uranyl acetate during one minute. Excess stain was removed with a filter paper and subsequently applied to a Tecnai G^2 Spirit BioTWIN.

The nature of series [4]: Estimating bead volume and density of CD3ac precipitates. It counts as physicochemical. As for the experimental part:
In order to estimate the density of CD3ac precipitates, beads (307.5×10^−6 M CD3ac starting concentration) were prepared large enough to exceed the diffraction limit of visible light. A low concentration of RB (10×10^−6 M) was co-precipitated to allow an estimate of the bead diameter by confocal fluorescence microscopy (1.35 μm) and facilitate counting on a hemacytometer (Hausser Scientific). An average of 72 beads were counted in an observed cell volume of 250,000 μm^3 that equals a bead volume fraction of 3.71×10^−4. A solution of 50 μL 307.5×10^−6M CD3ac thus contains a total bead volume of […] and the density of CD3ac can be determined (ρCD3ac≈1.35 g/cm^3). The logarithmic partition coefficient of RB in an aqueous solution of CD3ac beads was calculated according to […]

Series [5] can be described thus: Size of CD3ac beads by SEM and dynamic light scattering. It counts as physicochemical. The settings on record: SEM and DLS; initially dissolved CD3ac 123×10^−6 M. As for the experimental part: Scanning electron microscopy (SEM) was carried out on a Hitachi S-4800. SEM sample holders were cooled to −196° C. before a drop of the bead suspension was directly applied to the cold metal surface. The frozen sample on the plate was subsequently lyophilized, sputtered with platinum and analyzed.
Dynamic light scattering was measured on an ALV/CGS-8F platform based goniometer system equipped with an ALV/-5000/E correlator and an Argon-Ion laser with a wavelength of […] (35 mW) at scattering angles between 30° and 150°. An ALV-5000/E correlator calculates the photon intensity autocorrelation function g2(t). All experiments were performed at T=293 K and evaluated by second order cumulant fit (considering previously determined spherical particle shape by SEM). Polydispersities were determined by the contin-algorithm at all angles and never exceeded 0.11. […] For both angular and concentration dependence, a hydrodynamic radius was calculated from the Stokes-formula
[formula] where rh is the hydrodynamic radius of spherical particles, D is the diffusion constant, kB is the Boltzmann constant, T is the absolute temperature and is the viscosity of water. A graph of 1/rh versus angle (concentration) was plotted and the hydrodynamic radius (rh0) was calculated by extrapolating both concentration and angle measurements to zero. […]

The next series relates to CHO cells. In words: Release of encapsulated Flutax-2 into the cytosol of CHO cells. The class given is cell-based, Chinese hamster. The settings on record: 24 hours, 0.67 μM Flutax-2. As for the experimental part: To assess whether binding and internalization of PNPs can result in the selective import of small molecule cargo, the release of encapsulated Flutax-2 into cells was analyzed 24 hours post addition of PNPFlutax-2^Tfn-AF568 into the cells (FIGS. 13A-13I). Flutax-2 is an Oregon Green (OG) modified derivative of paclitaxel(19), a mitotic inhibitor applied in cancer therapy (20). Unlike its unlabeled form, Flutax-2 is charged and water-soluble at the applied concentration and does consequently not permeate cell membranes. Thus, it was used a model compound to investigate efficiency and specificity of small molecule delivery by PNPs to the cytosol. […] Flutax-2 emission in the cytosol was averaged to quantify the amount of delivered compound into the cells.
CHO cell lines were grown in F12:DMEM 1:1 (Cellgro, 10-090) plus 10% fetal bovine serum (Gibco). […] Samples were fixed with 3% paraformaldehyde (Sigma, P6148) in PBS, mounted on glass slides using fluorescent mounting medium (Dako, 53023) and analyzed within 24 hours.
Fixed cells were analyzed on a Nikon Ti inverted microscope equipped with 60× Plan Apo NA 1.4 objective lens. DAPI fluorescence was excited with a 360/40 filter and collected with a 460/50 emission filter. Oregon Green fluorescence was excited with a 360/40 and collected with a 480/40 emission filter. […]

Regarding `CC(C)C[C@@H](NC(=O)[C@H](Cc1c[nH]c2ccccc12)NC(=O)[C@@H](CC(C)C)NC(=O)[C@H](Cc1c[nH]c2ccccc12)NC(=O)[C@@H](CC(C)C)NC(=O)[C@H](Cc1c[nH]c2ccccc12)NC(=O)[C@@H](N)CCCCN)C(=O)N[C@@H](Cc1c[nH]c2ccccc12)C(N)=O` (racemic) [CD1, H-LK-LW-DL-LW-DL-LW-DL-LW-NH2], in series [1], the solubility in water entry is “water soluble”.
Still for that read-out and setting: the result for `CC(C)C[C@@H](NC(=O)[C@H](Cc1c[nH]c2ccccc12)NC(=O)[C@@H](CC(C)C)NC(=O)[C@H](Cc1c[nH]c2ccccc12)NC(=O)[C@@H](CC(C)C)NC(=O)[C@H](Cc1c[nH]c2ccccc12)NC(=O)[C@H](CCCCN)NC(=O)[C@@H](N)CCCCN)C(=O)N[C@@H](Cc1c[nH]c2ccccc12)C(N)=O` (racemic) [CD2, H-LK-LK-LW-DL-LW-DL-LW-DL-LW-NH2] reads “water soluble”.
In the case of `CC(C)C[C@@H](NC(=O)[C@H](Cc1c[nH]c2ccccc12)NC(=O)[C@@H](CC(C)C)NC(=O)[C@H](Cc1c[nH]c2ccccc12)NC(=O)[C@@H](CC(C)C)NC(=O)[C@H](Cc1c[nH]c2ccccc12)NC(=O)[C@H](CCCCN)NC(=O)[C@H](CCCCN)NC(=O)[C@@H](N)CCCCN)C(=O)N[C@@H](Cc1c[nH]c2ccccc12)C(N)=O` (racemic) [CD3, H-LK-LK-LK-LW-DL-LW-DL-LW-DL-LW-NH2], in series [2], the “particle stability at increasing / physiological salt strength” value is given as “not stable” and the “particle stability in pure water” value is “stable”. Further, the solubility in water entry in series [1] is “water soluble”.
For the molecule `CC(=O)NCCCC[C@H](NC(C)=O)C(=O)N[C@@H](CCCCNC(C)=O)C(=O)N[C@@H](CCCCNC(C)=O)C(=O)N[C@@H](Cc1c[nH]c2ccccc12)C(=O)N[C@H](CC(C)C)C(=O)N[C@@H](Cc1c[nH]c2ccccc12)C(=O)N[C@H](CC(C)C)C(=O)N[C@@H](Cc1c[nH]c2ccccc12)C(=O)N[C@H](CC(C)C)C(=O)N[C@@H](Cc1c[nH]c2ccccc12)C(N)=O` (racemic) [CD3ac, Ac-LK(Ac)-LK(Ac)-LK(Ac)-LW-DL-LW-DL-LW-DL-LW-NH2], the “thickness of the protein corona” value in series [3] was 9.0+/−2.1 nm. The average particle diameter stood at 100 nm in series [3] (assembled in the absence of Tfn-AF568) and 51 nm in series [3] (assembled in the presence of Tfn-AF568, excluding corona). In series [4] (307.5×10^−6 M CD3ac starting concentration, 10×10^−6 M RB, confocal fluorescence microscopy), the bead diameter is recorded as 1.35 μm. Also, in series [4] (from bead count and bead volume fraction), the “density of CD3ac precipitates (ρCD3ac)” value is reported as “≈ 1.35 g/cm^3”. The particle radius entry in series [5] is “about 260 nm”. Besides, in series [1], the solubility in water result is listed as “insoluble”. In addition, the “solubility in organic solvents” value in series [1] (EtOH, iPrOH, DMSO, DMF, MeCN) is listed as “readily dissolves”.
Turning to `CC(C)C[C@@H](NC(=O)[C@H](Cc1c[nH]c2ccccc12)NC(=O)[C@@H](CC(C)C)NC(=O)[C@H](Cc1c[nH]c2ccccc12)NC(=O)[C@@H](CC(C)C)NC(=O)[C@H](Cc1c[nH]c2ccccc12)NC(=O)[C@H](CCCCN)NC(=O)[C@H](CCCCN)NC(=O)[C@H](CCCCN)NC(=O)[C@@H](N)CCCCN)C(=O)N[C@@H](Cc1c[nH]c2ccccc12)C(N)=O` (racemic) [CD4, H-LK-LK-LK-LK-LW-DL-LW-DL-LW-DL-LW-NH2], in series [1], the solubility in water entry is recorded as “water soluble”.
For the molecule Flutax-2, the “Flutax-2 emission in the cytosol” value in the series on CHO cells is on record as “could not be detected”.
